Laboratory results published in US20240083861A1, “HSD17B13 INHIBITORS AND USES THEREOF” (FL2022-001, Inc., priority 2020, published 2024).

Target: T1, Recombinant human HSD17B13 enzyme (Homo sapiens, UniProt Q7Z5P4)
T1 sequence (Q7Z5P4 20-300): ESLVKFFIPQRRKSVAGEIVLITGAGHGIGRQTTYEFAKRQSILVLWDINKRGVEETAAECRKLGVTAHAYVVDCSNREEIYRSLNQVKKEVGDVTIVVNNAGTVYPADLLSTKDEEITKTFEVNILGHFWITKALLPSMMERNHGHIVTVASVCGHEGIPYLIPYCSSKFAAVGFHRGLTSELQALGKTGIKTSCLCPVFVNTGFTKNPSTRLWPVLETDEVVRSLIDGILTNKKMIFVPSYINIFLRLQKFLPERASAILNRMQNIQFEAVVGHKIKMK
Test: HSD17b13 NAD(P)H-Glo biochemical assay
Settings: 50 uM estradiol, 1 mM NAD+, NAD(P)H-Glo luminescence; read-out: HSD17β13 IC50
Summary of the method: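 Luminescent NAD(P)H-Glo read-out, taken after 1 hour at RT, measured cofactor reduction. Substrate and cofactor were estradiol at 50 uM and NAD+ at 1 mM final, reacted with the recombinant human enzyme for 3 hours at 37° C in 20 mM Tris pH7.4, 0.002% Tween-20, 0.02% BSA. Compound was pre-incubated with enzyme for 20 minutes at RT.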

| SMILES | IC50 [nM] |
| --- | --- |
| COCC1(NC(=O)c2ccc3oc(-c4cc(C(F)(F)F)c(F)c(O)c4F)nc3c2)CCC1 [Compound 1.26, 2-(2,4-Difluoro-3-hydroxy-5-(trifluoromethyl)phenyl)-N-(1-(methoxymethyl)cyclobutyl)benzo[d] oxazole-5-carboxamide] | < 100 |
| O=C(NC1(CCO)CCC1)c1ccc2oc(-c3cc(C(F)(F)F)c(F)c(O)c3F)nc2c1 [Compound 1.27, 2-(2,4-Difluoro-3-hydroxy-5-(trifluoromethyl)phenyl)-N-(1-(2-hydroxyethyl)cyclobutyl)benzo[d]oxa-zole-5-carboxamide] | 100 to 1000 |
| Oc1cc(-c2n[nH]c3nc(N4CC5(CCOCC5)C4)ncc23)cc(C(F)(F)F)c1F [Compound 10.01, 5-(6-(7-Oxa-2-azaspiro[3.5]nonan-2-yl)-1H-pyrazolo[3,4-d]pyrimidin-3-yl)-2-fluoro-3-(trifluoromethyl)phenol] | 100 to 1000 |
| Cn1nc(-c2cc(C(F)(F)F)c(F)c(O)c2F)c2cc(F)c(N3CCCOCC34CC4)nc21 [Compound 9.105, 2,6-Difluoro-3-(5-fluoro-1-methyl-6-(8-oxa-4-azaspiro[2.6]nonan-4-yl)-1H-pyrazolo[3,4-b]pyridin-3-yl)-5-(trifluoromethyl)phenol] | < 100 |
| CN(c1ncc2c(-c3cc(C(F)(F)F)c(F)c(O)c3F)nn(C)c2n1)C1CCOCC1 [Compound 9.39, 2,6-Difluoro-3-(1-methyl-6-(methyl(tetrahydro-2H-pyran-4-yl)amino)-1H-pyrazolo[3,4-d]pyrimidin-3-yl)-5-(trifluoromethyl)phenol] | < 100 |
| O=C(NC1CCC1)c1ccc2oc(-c3cc(O)cc(C(F)(F)F)c3)nc2c1 [Compound 2, N-Cyclobutyl-2-(3-hydroxy-5-(trifluoromethyl)phenyl)benzo[d]oxazole-5-carboxamide] | 100 to 1000 |
| Cn1nc(-c2cc(C(F)(F)F)c(F)c(O)c2F)c2cnc(N3CCNC(=O)C3)cc21 [Compound 9.92, 4-(3-(2,4-Difluoro-3-hydroxy-5-(trifluoromethyl)phenyl)-1-methyl-1H-pyrazolo[4,3-c]pyridin-6-yl)piperazin-2-one] | 100 to 1000 |
| CS(=O)(=O)N1CCN(c2cc3oc(-c4cc(O)c(F)c(C(F)(F)F)c4)nc3cn2)CC1 [Compound 6.01, 2-Fluoro-5-(6-(4-(methylsulfonyl)piperazin-1-yl)oxazolo[4,5-c]pyridin-2-yl)-3-(trifluoromethyl)phenol] | 100 to 1000 |
| CN(c1cc2c(cn1)c(-c1cc(C(F)(F)F)c(F)c(O)c1F)nn2C)C1CC1 [Compound 9, 3-(6-(Cyclopropyl(methyl)amino)-1-methyl-1H-pyrazolo[4,3-c]pyridin-3-yl)-2,6-difluoro-5-(trifluoromethyl)phenol] | < 100 |
| CCN(c1cc2c(cn1)c(-c1cc(C(F)(F)F)c(F)c(O)c1F)nn2C)C1CCC1 [Compound 9.46, 3-(6-(Cyclobutyl(ethyl)amino)-1-methyl-1H-pyrazolo[4,3-c]pyridin-3-yl)-2,6-difluoro-5-(trifluoromethyl)phenol] | < 100 |
| Cn1nc(-c2cc(C(F)(F)F)c(F)c(O)c2F)c2cc(F)c(N3CCOCC34CCC4)nc21 [Compound 9.107, 2,6-Difluoro-3-(5-fluoro-1-methyl-6-(8-oxa-5-azaspiro[3.5]nonan-5-yl)-1H-pyrazolo[3,4-b]pyridin-3-yl)-5-(trifluoromethyl)phenol] | < 100 |
| Cn1nc(-c2cc(C(F)(F)F)c(F)c(O)c2F)c2cnc(N(Cc3cccnc3)C3CCOCC3)cc21 [Compound 9.131, 2,6-Difluoro-3-(1-methyl-6-((pyridin-3-ylmethyl)(tetrahydro-2H-pyran-4-yl)amino)-1H-pyrazolo[4,3-c]pyridin-3-yl)-5-(trifluoromethyl)phenol] | < 100 |
| Cn1nc(-c2cc(C(F)(F)F)c(F)c(O)c2F)c2cnc(N3[C@@H]4CNC[C@H]3COC4)cc21 [Compound 9.100, 3-(6-(cis-3-Oxa-7,9-diazabicyclo[3.3.1]nonan-9-yl)-1-methyl-1H-pyrazolo[4,3-c]pyridin-3-yl)-2,6-difluoro-5-(trifluoromethyl)phenol] | 100 to 1000 |
| COC1CCN(c2cc3c(cn2)c(-c2cc(C(F)(F)F)c(F)c(O)c2F)nn3C)CC1 [Compound 9.47, 2,6-Difluoro-3-(6-(4-methoxypiperidin-1-yl)-1-methyl-1H-pyrazolo[4,3-c]pyridin-3-yl)-5-(trifluoromethyl)phenol] | < 100 |
| Cn1nc(-c2cc(C(F)(F)F)c(F)c(O)c2F)c2cnc(N3CCCOCC3)cc21 [Compound 9.58, 2,6-Difluoro-3-(1-methyl-6-(1,4-oxazepan-4-yl)-1H-pyrazolo[4,3-c]pyridin-3-yl)-5-(trifluoromethyl)phenol] | < 100 |

Results, then the molecule that gave them:

| IC50 [nM] | SMILES |
| --- | --- |
| < 100 | Cn1nc(-c2cc(C(F)(F)F)c(F)c(O)c2F)c2cnc(N3CCN(S(C)(=O)=O)[C@@H](c4ccccc4)C3)nc21 [Compound 18.109, (S)-2,6-Difluoro-3-(1-methyl-6-(4-(methylsulfony1)-3-phenylpiperazin-1-y1)-1H-pyrazolo[3,4-d]pyrimidin-3-y1)-5-(trifluoromethyl)phenol] |
| < 100 | CCOC1(C)CCN(c2ncc3c(-c4cc(C(F)(F)F)c(F)c(O)c4F)nn(C)c3n2)CC1 [Compound 18.68, 3-(6-(4-Ethoxy-4-methylpiperidin-1-y1)-1-methyl-1H-pyrazolo[3,4-d]pyrimidin-3-y1)-2,6-difluoro-5-(trifluoromethyl)phenol] |
| < 100 | Cn1nc(-c2cc(C(F)(F)F)c(F)c(O)c2F)c2cnc(N3CCOC(C)(C)C3)nc21 [Compound 18.103, 3-(6-(2,2-Dimethylmorpholino)-1-methyl-1H-pyrazolo[3,4-d]pyrimidin-3-y1)-2,6-difluoro-5-(trifluoromethyl)phenol] |
| < 100 | C[C@H]1CN(c2cc3c(cn2)c(-c2cc(C(F)(F)F)c(F)c(O)c2F)nn3C)CCN1C(=O)Nc1ccccc1 [Compound 21.06, (S)-4-(3-(2,4-Difluoro-3-hydroxy-5-(trifluoromethyl)phenyl)-1-methyl-1H-pyrazolo[4,3-c]pyridin-6-y1)-2-methyl-N-phenylpiperazine-1-carboxamide] |
| < 100 | Cn1nc(-c2cc(C(F)(F)F)c(F)c(O)c2F)c2cnc(N3CCCCC3)nc21 [Compound 18.35, 2,6-Difluoro-3-(1-methyl-6-(piperidin-1-yl)-1H-pyrazolo[3,4-d]pyrimidin-3-y1)-5-(trifluoromethyl)phenol] |
| < 100 | Cn1nc(-c2cc(C(F)(F)F)c(F)c(O)c2F)c2cnc(N3CCCC(O)C3)nc21 (centres unmarked) [Compound 18.05, 1-(3-(2,4-Difluoro-3-hydroxy-5-(trifluoromethyl)phenyl)-1-methyl-1H-pyrazolo[3,4-d]pyrimidin-6-y1)piperidin-3-ol] |
| < 100 | CN1CCC2(CCN(c3ncc4c(-c5cc(C(F)(F)F)c(F)c(O)c5F)nn(C)c4n3)CC2)C1=O [Compound 18.08, 8-(3-(2,4-Difluoro-3-hydroxy-5-(trifluoromethyl)phenyl)-1-methyl-1H-pyrazolo[3,4-d]pyrimidin-6-yl)-2-methyl-2,8-diazaspiro[4.5]decan-1-one] |
| < 100 | CC(C)OC1CCN(c2ncc3c(-c4cc(C(F)(F)F)c(F)c(O)c4F)nn(C)c3n2)CC1 [Compound 18.69, 2,6-Difluoro-3-(6-(4-isopropoxypiperidin-1-yl)-1-methyl-1H-pyrazolo[3,4-d]pyrimidin-3-y1)-5-(trifluoromethyl)phenol] |
| < 100 | Cn1nc(-c2cc(C(F)(F)F)c(F)c(O)c2F)c2cnc(N3CCOC(c4ccccn4)C3)nc21 (centres unmarked) [Compound 18.48, 2,6-Difluoro-3-(1-methyl-6-(2-(pyridin-2-yl)morpholino)-1H-pyrazolo[3,4-d]pyrimidin-3-y1)-5-(trifluoromethyl)phenol] |
| < 100 | Cn1nc(-c2cc(C(F)(F)F)c(F)c(O)c2F)c2cnc(N3CCC(C)(C)CC3)nc21 [Compound 18.108, 3-(6-(4,4-Dimethylpiperidin-1-yl)-1-methyl-1H-pyrazolo[3,4-d]pyrimidin-3-yl)-2,6-difluoro-5-(trifluoromethyl)phenol] |
| 100 to 1000 | Cn1nc(-c2cc(C(F)(F)F)c(F)c(O)c2F)c2cnc(C3CCN(S(C)(=O)=O)CC3)cc21 [Compound 15.03, 2,6-Difluoro-3-(1-methyl-6-(1-(methylsulfony1)piperidin-4-y1)-1H-pyrazolo[4,3-c]pyridin-3-y1)-5-(trifluoromethyl)phenol] |
| < 100 | Cn1nc(-c2cc(C(F)(F)F)c(F)c(O)c2F)c2cnc(N3CCOCC34CC4)nc21 [Compound 12.03, 2,6-Difluoro-3-(1-methyl-6-(7-oxa-4-azaspiro[2.5]octan-4-yl)-1H-pyrazolo[3,4-d]pyrimidin-3-yl)-5-(trifluoromethyl)phenol] |
| < 100 | Cn1nc(-c2cc(C(F)(F)F)c(F)c(O)c2F)c2cnc(N3CCN(S(C)(=O)=O)CC3)cc21 [Compound 12.05, 2,6-Difluoro-3-(1-methyl-6-(4-(methylsulfonyl)piperazin-1-yl)-1H-pyrazolo[4,3-c]pyridin-3-yl)-5-(trifluoromethyl)phenol] |
| 100 to 1000 | CN1CCN(c2ncc3c(-c4cc(C(F)(F)F)c(F)c(O)c4F)nn(C)c3n2)CC1c1ncc[nH]1 (centres unmarked) [Compound 18.101, 3-(6-(3-(1H-Imidazol-2-yl)-4-methylpiperazin-1-y1)-1-methyl-1H-pyrazolo[3,4-d]pyrimidin-3-yl)-2,6-difluoro-5-(trifluoromethyl)phenol] |
